In assay [1] the test system is recombinant human Bcl-2-G101V protein. Description: Bcl-2-G101V TR-FRET Assay. It is filed as binding. Particulars: ratio of biochemical IC50 Bcl-2 G101V / Bcl-2 WT. The method in brief:
(§1)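 Measures how compounds block Bcl-2-G101V engaging its ligand, by TR-FRET with 337 nm excitation and a 490/520 nm emission ratio; dose-response data give IC50 via a four-parameter logistic model.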
On the technique in general: In TR-FRET formats the signal depends on donor and acceptor labels being close together.

Assay [2] deals with recombinant human Bcl-2-G101V protein (Homo sapiens (Human), UniProt P10415, G101V). Description: Bcl-2-G101V TR-FRET Assay. The class given is binding. As to conditions: Bcl-2 G101V mutant, TR-FRET; read-out: Biochemical assay (IC50, nM) Bcl-2 G101V. The method in brief:
as §1

In assay [3] the test system is RS4;11 (BCL-2 dependent acute lymphoblastic leukemia cell line). Description: RS4;11 Cell Proliferation Assay. The class given is cell-based. As to conditions: Homo sapiens, RS4-11, RS4;11 cells, read-out: Cellular proliferation assay (IC50, nM) RS4. In short, it runs like this: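 RS4;11 cells, 50,000 per well in RPMI-1640 with 10% FBS, treated 48 h at 37 °C with a 10-point dilution series topping at 1 μM. Viability read by CellTiter-Glo ATP luminescence; mean IC50 reported.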

Assay [4] addresses Recombinant human Bcl-2 protein (Homo sapiens (Human), UniProt P10415). Description: Bcl-2 TR-FRET Assay. As to conditions: Bcl-2 wild type, TR-FRET; read-out: Biochemical assay (IC50, nM) Bcl-2 WT. It is filed as binding. In short, it runs like this: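 0.05 nM Bcl-2 pre-incubated 0.5 h at room temperature with 10-point compound dilutions (top final 1, 0.1, 0.02 or 0.01 uM) in 20 mM potassium phosphate pH 7.5, 50 mM NaCl, 1 mM EDTA, 0.05% Tween-20, 0.01% BSA; FITC-Bak peptide (0.5 nM) and anti-6His Tb cryptate added, 1 h. IC50 from four-parameter logistic fit.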

In assay [5] the test system is BCL-2 G101V knock-in cell line H96 (derive from RS4;11). Description: Bcl 2-G101V Knock-In RS4;11 Cell Proliferation Assay. The class given is cell-based. Particulars: Homo sapiens, RS4;11 Bcl-2 G101V knock-in clone H96, 48 hrs, CellTiter-GLO, read-out: Cellular proliferation assay (IC50, nM) RS4. In short, it runs like this:
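H96, a CRISPR-generated RS4;11 clone carrying BCL2-G101V knock-in (WES/RNA-seq validated), seeded 50,000 per well and exposed 48 h at 37 °C to 10-point dilutions topping at 1 or 10 μM. Viability by CellTiter-Glo luminescence; mean IC50.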

As to `COc1cccc(CN2CCN(C3CC4(CCN(c5ccc(C(=O)NS(=O)(=O)c6ccc(NC[C@H]7CC[C@](C)(O)CC7)c([N+](=O)[O-])c6)c(Oc6cnc7[nH]ccc7c6)c5)CC4)C3)C(c3ccccc3C(C)C)C2)c1Cl` (stereo partly shown) [Example 120, 2-((1H-pyrrolo[2,3-b]pyridin-5-yl)oxy)-4-(2-(4-(2-chloro-3-methoxybenzyl)-2-(2-isopropylphenyl)piperazin-1-yl)-7-azaspiro[3.5]nonan-7-yl)-N-((4-((((1r,4r)-4-hydroxy-4-methylcyclohexyl)methyl)amino)-3-nitrophenyl)sulfonyl)benzamide], in assay [1], the “Ratio of Bcl-2 G101V/WT” value is reported as 8. Further, the IC50 in assay [2] was determined as 3.4 nM; in assay [3], 1.25 nM; in assay [4], 0.42 nM; in assay [5] it was 12.7 nM.

For `COc1cc(CN2CCN(C3CC4(CCN(c5ccc(C(=O)NS(=O)(=O)c6ccc(NC[C@H]7CC[C@](C)(O)CC7)c([N+](=O)[O-])c6)c(Oc6cnc7[nH]ccc7c6)c5)CC4)C3)[C@H](c3ccccc3C(C)C)C2)ccc1F` [Example 121a, 2-((1H-pyrrolo[2,3-b]pyridin-5-yl)oxy)-4-(2-((R)-4-(4-fluoro-3-methoxybenzyl)-2-(2-isopropylphenyl)piperazin-1-yl)-7-azaspiro[3.5]nonan-7-yl)-N-((4-((((1r,4r)-4-hydroxy-4-methylcyclohexyl)methyl)amino)-3-nitrophenyl)sulfonyl)benzamide], in assay [1], the “Ratio of Bcl-2 G101V/WT” value amounted to 3.4. The IC50 was found to be 0.4 nM in assay [2], 0.153 nM in assay [3], 0.12 nM in assay [4] and 0.603 nM in assay [5].

Take `COc1cc(CN2CCN(C3CC4(CCN(c5ccc(C(=O)NS(=O)(=O)c6ccc(NC[C@H]7CC[C@](C)(O)CC7)c([N+](=O)[O-])c6)c(Oc6cnc7[nH]ccc7c6)c5)CC4)C3)C(c3ccccc3C(C)C)C2)ccc1Cl` (stereo partly shown) [Example 126, 2-((1H-pyrrolo[2,3-b]pyridin-5-yl)oxy)-4-(2-(4-(4-chloro-3-methoxybenzyl)-2-(2-isopropylphenyl)piperazin-1-yl)-7-azaspiro[3.5]nonan-7-yl)-N-((4-((((1r,4r)-4-hydroxy-4-methylcyclohexyl)methyl)amino)-3-nitrophenyl)sulfonyl)benzamide]: the “Ratio of Bcl-2 G101V/WT” value in assay [1] turned out to be 4.5. Moreover, the IC50 in assay [2] turned out to be 1.9 nM; in assay [3], 0.18 nM; in assay [4], 0.42 nM; in assay [5], 3.6 nM.

Regarding `COc1ccc(CN2CCN(C3CC4(CCN(c5ccc(C(=O)NS(=O)(=O)c6ccc(NC[C@H]7CC[C@](C)(O)CC7)c([N+](=O)[O-])c6)c(Oc6cnc7[nH]ccc7c6)c5)CC4)C3)C(c3ccccc3C(C)C)C2)cc1Cl` (stereo partly shown) [Example 128, 2-((1H-pyrrolo[2,3-b]pyridin-5-yl)oxy)-4-(2-(4-(3-chloro-4-methoxybenzyl)-2-(2-isopropylphenyl)piperazin-1-yl)-7-azaspiro[3.5]nonan-7-yl)-N-((4-((((1r,4r)-4-hydroxy-4-methylcyclohexyl)methyl)amino)-3-nitrophenyl)sulfonyl)benzamide], the “Ratio of Bcl-2 G101V/WT” value in assay [1] is given as 4. For the same molecule, the IC50 is 2.6 nM in assay [2], 0.36 nM in assay [3], 0.63 nM in assay [4] and 3.94 nM in assay [5].

As for `CC(C)c1ccccc1C1CN(Cc2cccc3c2OCCC3)CCN1C1CC2(CCN(c3ccc(C(=O)NS(=O)(=O)c4ccc(NC[C@H]5CC[C@](C)(O)CC5)c([N+](=O)[O-])c4)c(Oc4cnc5[nH]ccc5c4)c3)CC2)C1` (stereo partly shown) [Example 130, 2-((1H-pyrrolo[2,3-b]pyridin-5-yl)oxy)-4-(2-(4-(chroman-8-ylmethyl)-2-(2-isopropylphenyl)piperazin-1-yl)-7-azaspiro[3.5]nonan-7-yl)-N-((4-((((1r,4r)-4-hydroxy-4-methylcyclohexyl)methyl)amino)-3-nitrophenyl)sulfonyl)benzamide], the “Ratio of Bcl-2 G101V/WT” value in assay [1] amounted to 3.4. For the same molecule, the IC50 in assay [2] worked out at 1.9 nM; in assay [3], 0.34 nM; in assay [4], 0.57 nM; in assay [5], 2.8 nM.

In the case of `CC(C)c1ccccc1C1CN(Cc2cccc3c2CCCO3)CCN1C1CC2(CCN(c3ccc(C(=O)NS(=O)(=O)c4ccc(NC[C@H]5CC[C@](C)(O)CC5)c([N+](=O)[O-])c4)c(Oc4cnc5[nH]ccc5c4)c3)CC2)C1` (stereo partly shown) [Example 133, 2-((1H-pyrrolo[2,3-b]pyridin-5-yl)oxy)-4-(2-(4-(chroman-5-ylmethyl)-2-(2-isopropylphenyl)piperazin-1-yl)-7-azaspiro[3.5]nonan-7-yl)-N-((4-((((1r,4r)-4-hydroxy-4-methylcyclohexyl)methyl)amino)-3-nitrophenyl)sulfonyl)benzamide], in assay [1], the “Ratio of Bcl-2 G101V/WT” value was determined as 3.4. The IC50 was determined as 1.9 nM in assay [2], 0.34 nM in assay [3], 0.57 nM in assay [4] and 2.8 nM in assay [5].

On to `COc1ccc(CN2CCN(C3CC4(CCN(c5ccc(C(=O)NS(=O)(=O)c6ccc(NC[C@H]7CC[C@](C)(O)CC7)c([N+](=O)[O-])c6)c(Oc6cnc7[nH]ccc7c6)c5)CC4)C3)C(c3ccccc3C(C)C)C2)cc1C1CC1` (stereo partly shown) [Example 136, 2-((1H-pyrrolo[2,3-b]pyridin-5-yl)oxy)-4-(2-(4-(3-cyclopropyl-4-methoxybenzyl)-2-(2-isopropylphenyl)piperazin-1-yl)-7-azaspiro[3.5]nonan-7-yl)-N-((4-((((1r,4r)-4-hydroxy-4-methylcyclohexyl)methyl)amino)-3-nitrophenyl)sulfonyl)benzamide], for which the “Ratio of Bcl-2 G101V/WT” value in assay [1] was 3.8. Besides, the IC50 in assay [2] is 2.9 nM; in assay [3], 0.51 nM; in assay [4], 0.75 nM; in assay [5] it was 4.6 nM.

On to `CC(C)c1ccccc1C1CN(Cc2cccc3ccoc23)CCN1C1CC2(CCN(c3ccc(C(=O)NS(=O)(=O)c4ccc(NC[C@H]5CC[C@](C)(O)CC5)c([N+](=O)[O-])c4)c(Oc4cnc5[nH]ccc5c4)c3)CC2)C1` (stereo partly shown) [Example 137, 2-((1H-pyrrolo[2,3-b]pyridin-5-yl)oxy)-4-(2-(4-(benzofuran-7-ylmethyl)-2-(2-isopropylphenyl)piperazin-1-yl)-7-azaspiro[3.5]nonan-7-yl)-N-((4-((((1r,4r)-4-hydroxy-4-methylcyclohexyl)methyl)amino)-3-nitrophenyl)sulfonyl)benzamide], for which the “Ratio of Bcl-2 G101V/WT” value in assay [1] amounted to 5.1. The IC50 in assay [2] stood at 3.2 nM; in assay [3], 0.89 nM; in assay [4], 0.62 nM; in assay [5], 9.6 nM.

In the case of `COc1ccc(OC2CCN(C3CC4(CCN(c5ccc(C(=O)NS(=O)(=O)c6ccc(NC[C@H]7CC[C@](C)(O)CC7)c([N+](=O)[O-])c6)c(Oc6cnc7[nH]ccc7c6)c5)CC4)C3)C(c3ccccc3C(C)C)C2)cc1` (stereo partly shown) [Example 138, 2-((1H-pyrrolo[2,3-b]pyridin-5-yl)oxy)-N-((4-((((1r,4r)-4-hydroxy-4-methylcyclohexyl)methyl)amino)-3-nitrophenyl)sulfonyl)-4-(2-(2-(2-isopropylphenyl)-4-(4-methoxyphenoxy)piperidin-1-yl)-7-azaspiro[3.5]nonan-7-yl) benzamide], the “Ratio of Bcl-2 G101V/WT” value in assay [1] came out at 4.1. The IC50 in assay [2] stood at 1.5 nM; in assay [3], 0.44 nM; in assay [4], 0.36 nM; in assay [5], 3 nM.

Take `COc1ccc(CN2CCN(C3CC4(C3)CN(c3ccc(C(=O)NS(=O)(=O)c5ccc(NC[C@H]6CC[C@](C)(O)CC6)c([N+](=O)[O-])c5)c(Oc5cnc6[nH]cc(F)c6c5)c3)C4)[C@@H](c3ccccc3C(C)C)C2)cc1OC` [Example 141b, 4-(6-((S)-4-(3,4-dimethoxybenzyl)-2-(2-isopropylphenyl)piperazin-1-yl)-2-azaspiro[3.3]heptan-2-yl)-2-((3-fluoro-1H-pyrrolo[2,3-b]pyridin-5-yl)oxy)-N-((4-((((1r,4r)-4-hydroxy-4-methylcyclohexyl)methyl)amino)-3-nitrophenyl)sulfonyl)benzamide]: in assay [1], the “Ratio of Bcl-2 G101V/WT” value came out at 40. Also, the IC50 in assay [2] is 2.3 nM; in assay [3], 0.659 nM; in assay [4] it was 0.059 nM; in assay [5], 4.09 nM.

Turning to `C#Cc1ccc(CN2CCN(C3CC4(CCN(c5ccc(C(=O)NS(=O)(=O)c6ccc(NC[C@H]7CC[C@](C)(O)CC7)c([N+](=O)[O-])c6)c(Oc6cnc7[nH]ccc7c6)c5)CC4)C3)C(c3ccccc3C(C)C)C2)cc1` (stereo partly shown) [Example 142, 2-((1H-pyrrolo[2,3-b]pyridin-5-yl)oxy)-4-(2-(4-(4-ethynylbenzyl)-2-(2-isopropylphenyl)piperazin-1-yl)-7-azaspiro[3.5]nonan-7-yl)-N-((4-((((1r,4r)-4-hydroxy-4-methylcyclohexyl)methyl)amino)-3-nitrophenyl)sulfonyl)benzamide], in assay [1], the “Ratio of Bcl-2 G101V/WT” value is on record as 5.3. Besides, the IC50 in assay [2] was 3 nM; in assay [3], 0.795 nM; in assay [4], 0.56 nM; in assay [5], 6.22 nM.

Values taken from patent US20240376097A1, “BCL-2 Inhibitor” (BeiGene Ltd., priority 2020, published 2024).
